# In patent US20250352629A1, “ADJUVANT FOR BACILLUS CALMETTE-GUERIN CANCER IMMUNOTHERAPY” (The Royal Institution for the Advancement of …, priority 2024, published 2025):
# Where “and” joins values, the source holds several entries; their conditions need not be identical. Equal values may be shown once. Entries after “also recorded” stand apart in the source; their conditions may differ.
# Assays:
# [1] = tested on: MB49 cells; details: mouse, in vivo
# [2] = tested on: HSCs (LKS+ cells) and immune cells in BM and bladder; details: mouse, in vivo
# [3] = tested on: MB49 cells; details: mouse, in vivo; remark: listed apart in the source
# [4] = tested on: B16-F10 cells; details: mouse, in vivo
# [5] = tested on: bladder cancer; details: human, in vivo; cited from earlier work
# [6] = mouse, in vivo
# [7] = tested on: MB49 cells
compound,measurement,setting,value
β-Glucan,increase in survival,[1],50% and 40%
same,survival,[1],40%
same,survival after neutrophil depletion,[1],10%
same,"tumor growth / tumoral volume (histopathology, MRI, tumoral weight)",[1],suppressing tumoral growth; also recorded: reduced tumor growth; also recorded: significant reduction in tumor volume
same,enhanced survival compared to PBS-control group,[1]; ip,45%
same,frequency and absolute number of neutrophils in bladder,[2],significantly increased
same,frequency of lymphocytes / adaptive immune cells (CD4+ and CD8+ T cells) in bladder,[2],remained unchanged
same,frequency and total cell number of neutrophils in BM,[2]; ip,increased
same,tumor growth,[3],developed tumors
Bacillus Calmette-Guérin [BCG],increase in survival,[1],50%
same,survival,[1],50-70% and 50%
same,"tumor growth / tumoral volume (histopathology, MRI, tumoral weight)",[1],substantial reduction in tumoral volume; also recorded: reduced tumor growth; also recorded: significant tumor reduction
same,enhanced survival,[1]; iv,40-50%
same,BM-LKS+ population,[4],significant expansion
same,efficacy of BCG treatment in bladder cancer,[5],30-50%
same,intolerance due to adverse effects,[5],about 20%
same,patients experiencing relapse,[5],up to 40%
same,patients unresponsive to BCG immunotherapy,[5],up to 50%
same,"LKS+ population in BM, frequency and absolute number",[2],significant expansion
same,frequency and absolute number of monocytes in BM,[2],increased
same,frequency and absolute number of neutrophils in BM,[2],increased
same,frequency and absolute number of neutrophils in bladder,[2],increased
same,frequency and absolute numbers of dendritic cells in BM,[2],increased
same,frequency and absolute numbers of dendritic cells in bladder,[2],increased
same,frequency and absolute numbers of monocytes in bladder,[2],increased
same,frequency and total cell numbers of NK cells in bladder,[2],increased
same,frequency and total cell numbers of macrophages in bladder,[2],increased
same,frequency of lymphocytes / adaptive immune cells (CD4+ and CD8+ T cells) in bladder,[2],increased
same,proportions of long-term HSCs (LT-HSCs) in BM,[2],reduction
same,proportions of multipotent progenitors (MPPs) in BM,[2],increases
same,proportions of short-term HSCs (ST-HSCs) in BM,[2],increases
same,BCG dissemination to organs,[6],"reached the spleen, draining lymph nodes, and BM"
same,BCG elimination in urine,[6],eliminated in the urine
same,tumor growth,[3],significantly reduced tumor growth
"CC(=O)N[C@@H](CS)C(=O)O [NAC, N-Acetyl Cysteine]",effect of ROS scavenger on cytotoxic activity of trained neutrophils,[7],abolished the cytotoxic activity
